≈ marks a conversion by molar mass, not a printed value.
Columns and labels:
[1] = tested on: HeLa (Human cervical cancer cell line); experiment: In vitro cytotoxicity, Sulforhodamine B (SRB) assay; type: cell-based; settings: Homo sapiens, HeLa; SRB assay; concentration range 50 to 0.78 μg/mL
Experimental: To examine the safety of the synthesized compounds, the compounds 4e and 4k were evaluated for their toxicity against the HeLa human cervical cancer cell line by a Sulforhodamine B (SRB) assay using Adriamycin as a standard drug.
In vitro cytotoxicity study of the synthesized compounds 4e and 4k was performed against HeLa (Human cervical cancer cell line) by Sulforhodamine B (SRB) assay using Adriamycin as positive control. The images were captured using an Eclipse Ti-S Inverted Research Microscope (Nikon, Tokyo, Japan). Image processing software used was NIS-Elements.

[2] = tested on: Staphylococcus aureus (NCIM-2901); experiment: In vitro antibacterial activity, MIC; type: cell-based; settings: Staphylococcus aureus, NCIM2901; average of three readings
Experimental: (§1) The newly synthesized compounds 4a–o were screened for their in vitro antibacterial activity against the three different bacterial strains. Minimum inhibitory concentration (MIC) values for antibacterial activity were determined by standard agar method using Ampicillin as standard drug. Dimethyl sulfoxide (DMSO) was used as solvent control. […] Compound 4e bearing a 2,4-difluoro group on the phenyl ring was 48 µg/mL for E. coli, 50 µg/mL for B. subtilis and 52 µg/mL for S. aureus.
(§2) All the synthesized compounds were screened for their in vitro antifungal and antibacterial activity. The antibacterial activity was evaluated against three human pathogenic bacterial strains: Escherichia coli (NCIM-2256), Bacillus subtilis (NCIM-2063) and Staphylococcus aureus (NCIM-2901). The antifungal activity was evaluated against seven human pathogenic fungal strains: Candida albicans (NCIM-3471), Candida glabrata (NCYC-388), Fusarium oxysporum (NCIM-1332), Aspergillus fumigates (NCIM-902), Aspergillus flavus (NCIM-539), Aspergillus niger (NCIM-1196) and Cryptococcus neoformans (NCIM-576), which are often encountered clinically. Miconazole was used as standard drug. Minimum inhibitory concentration (MIC) values were determined as per CLSI guidelines. Dimethyl sulfoxide (DMSO) was used as solvent control.
(§3) All the synthesized compounds 4a–o were screened for their in vitro antibacterial activity. Minimum inhibitory concentration (MIC) values were determined using method recommended by National Committee for Clinical Laboratory Standards (NCCLS). In vitro antibacterial activities of the synthesized compounds 4a–o were tested in Nutrient Broth (NB) for bacteria by the two fold serial dilution method. Seeded broth (broth containing microbial spores) was prepared in NB from 24 h old bacterial cultures on nutrient agar (Hi-media) at 37± 1 °C. The bacterial suspension was adjusted with sterile saline to a concentration of 1× 10^−4–10^−5 C.F.U. The synthesized compounds and standard drug Ampicillin were prepared by two fold serial dilutions to obtain the required concentrations of 400, 200, 100, 50, 25, 12.5, 6.25 and 3.13 μg/mL. The tubes were incubated in BOD incubators at 37± 1 °C for bacteria. The MICs were recorded by visual observations after 24 h (for bacteria) of incubation.

[3] = tested on: Escherichia coli (NCIM-2256); experiment: In vitro antibacterial activity, MIC; type: cell-based; settings: Escherichia coli, NCIM2256; average of three readings
Experimental: as §1, §2, §3

[4] = tested on: Bacillus subtilis (NCIM-2063); experiment: In vitro antibacterial activity, MIC; type: cell-based; settings: Bacillus subtilis, NCIM2063; average of three readings
Experimental: as §1, §2, §3

[5] = tested on: Aspergillus fumigates (NCIM-902); experiment: In vitro antifungal activity, MIC, agar method (CLSI); type: cell-based; settings: NCIM902, average of three readings
Experimental: (§4) The newly synthesized 3-((dicyclohexylamino)(substituted phenyl/heteryl)methyl)-4-hydroxy-2H-chromen-2-one derivatives 4a–o were screened for their in vitro antifungal activity against different yeast and filamentous fungal pathogens. […] Dimethyl sulfoxide (DMSO) was used as solvent control.
as §2, with “Miconazole was used as standard drug.” left out
(§5) Antifungal activity was determined as per CLSI (formerly, NCCLS) guidelines. […] The medium yeast nitrogen base was dissolved in phosphate buffer pH 7 and it was autoclaved at 110 °C for 10 min. With each set a growth control without the antifungal agent and solvent control DMSO were included. The fungal strains were freshly sub cultured on to Sabouraud dextrose agar (SDA) and incubated at 25 °C for 72 h. The fungal cells were suspended in sterile distilled water and diluted to get 10^5 cells/mL. Ten μL of the standardized suspension was inoculated onto the control plates and the media incorporated with the antifungal agents. The inoculated plates were incubated at 25 °C for 48 h. The readings were taken at the end of 48 h and 72 h. The MIC was the lowest concentration of drug preventing growth of macroscopically visible colonies on drug containing plates when there was visible growth on the drug free control plates.

[6] = tested on: Fusarium oxysporum (NCIM-1332); experiment: as above; type: cell-based; settings: NCIM1332, average of three readings
Experimental: as §4
as §2, with “Miconazole was used as standard drug.” left out
as §5

[7] = tested on: Aspergillus niger (NCIM-1196); experiment: as above; type: cell-based; settings: NCIM1196, average of three readings
Experimental: as §4
as §2, with “Miconazole was used as standard drug.” left out
as §5

[8] = tested on: Cryptococcus neoformans (NCIM-576); experiment: as above; type: cell-based; settings: NCIM576, average of three readings
Experimental: as §4
as §2, with “Miconazole was used as standard drug.” left out
as §5

[9] = tested on: Candida albicans (NCIM-3471); experiment: as above; type: cell-based; settings: NCIM3471, average of three readings
Experimental: as §4
as §2, with “Miconazole was used as standard drug.” left out
as §5

[10] = tested on: Aspergillus flavus (NCIM-539); experiment: as above; type: cell-based; settings: NCIM539, average of three readings
Experimental: as §4
as §2, with “Miconazole was used as standard drug.” left out
as §5

[11] = tested on: Candida glabrata (NCYC-388); experiment: as above; type: cell-based; settings: Nakaseomyces glabratus; average of three readings
Experimental: as §4
as §2, with “Miconazole was used as standard drug.” left out
as §5

| MIC [2] [µg/mL] | MIC [3] [µg/mL] | MIC [4] [µg/mL] | MIC [5] [µg/mL] | MIC [6] [µg/mL] | MIC [7] [µg/mL] | MIC [8] [µg/mL] | MIC [9] [µg/mL] | MIC [10] [µg/mL] | MIC [11] [µg/mL] | melting point [°C] | SMILES | GI50 [1] [µg/mL] |
| --- | --- | --- | --- | --- | --- | --- | --- | --- | --- | --- | --- | --- |
| 54 (≈ 110 µM) | 56 (≈ 114 µM) | 54 (≈ 110 µM) | 36 (≈ 73.2 µM) | 28 (≈ 57 µM) | 12 (≈ 24.4 µM) | 12 (≈ 24.4 µM) | 25 (≈ 50.9 µM) | 15 (≈ 30.5 µM) | 28 (≈ 57 µM) | 140 to 142 | CCOc1cc(C(c2c(O)c3ccccc3oc2=O)N(C2CCCCC2)C2CCCCC2)ccc1O (stereo not shown) [Compound 4l, 3-((Dicyclohexylamino)(3-ethoxy-4-hydroxyphenyl)methyl)-4-hydroxy-2H-chromen-2-one] | – |
| 78 (≈ 180 µM) | 68 (≈ 157 µM) | 74 (≈ 171 µM) | 45 (≈ 104 µM) | 40 (≈ 92.5 µM) | 22 (≈ 50.9 µM) | 28 (≈ 64.7 µM) | 48 (≈ 111 µM) | 25 (≈ 57.8 µM) | 46 (≈ 106 µM) | 148 to 150 | O=c1oc2ccccc2c(O)c1C(c1ccccn1)N(C1CCCCC1)C1CCCCC1 (stereo not shown) [Compound 4m, 3-((Dicyclohexylamino)(pyridin-2-yl)methyl)-4-hydroxy-2H-chromen-2-one] | – |
| 72 (≈ 165 µM) | 65 (≈ 149 µM) | 74 (≈ 169 µM) | 67 (≈ 153 µM) | 58 (≈ 133 µM) | 38 (≈ 86.8 µM) | 33 (≈ 75.4 µM) | 55 (≈ 126 µM) | 32 (≈ 73.1 µM) | 53 (≈ 121 µM) | 140 to 142 | O=c1oc2ccccc2c(O)c1C(c1cccs1)N(C1CCCCC1)C1CCCCC1 (stereo not shown) [Compound 4n, 3-((Dicyclohexylamino)(thiophen-2-yl)methyl)-4-hydroxy-2H-chromen-2-one] | – |
| 70 (≈ 166 µM) | 66 (≈ 157 µM) | 74 (≈ 176 µM) | 65 (≈ 154 µM) | 55 (≈ 130 µM) | 49 (≈ 116 µM) | 48 (≈ 114 µM) | 56 (≈ 133 µM) | 46 (≈ 109 µM) | 55 (≈ 130 µM) | 148 to 150 | O=c1oc2ccccc2c(O)c1C(c1ccco1)N(C1CCCCC1)C1CCCCC1 (stereo not shown) [Compound 4o, 3-((Dicyclohexylamino)(furan-2-yl)methyl)-4-hydroxy-2H-chromen-2-one] | – |

Second part, the compound before the results:

| SMILES | MIC [2] [µg/mL] | MIC [3] [µg/mL] | MIC [4] [µg/mL] | MIC [5] [µg/mL] | MIC [6] [µg/mL] | MIC [7] [µg/mL] | MIC [8] [µg/mL] | MIC [9] [µg/mL] | MIC [10] [µg/mL] | MIC [11] [µg/mL] | melting point [°C] | GI50 [1] [µg/mL] |
| --- | --- | --- | --- | --- | --- | --- | --- | --- | --- | --- | --- | --- |
| COc1cccc2c1C(=O)c1c(O)c3c(c(O)c1C2=O)C[C@@](O)(C(=O)CO)C[C@@H]3O[C@H]1C[C@H](N)[C@H](O)[C@H](C)O1 [Adriamycin, reference compound] | – | – | – | – | – | – | – | – | – | – | – | 0.5 (≈ 0.92 µM) |
| O=c1oc2ccccc2c(O)c1C(c1ccc(O)cc1)N(C1CCCCC1)C1CCCCC1 (stereo not shown) [Compound 4i, 3-((Dicyclohexylamino)(4-hydroxyphenyl)methyl)-4-hydroxy-2H-chromen-2-one] | 67 (≈ 150 µM) | 64 (≈ 143 µM) | 66 (≈ 147 µM) | 42 (≈ 93.8 µM) | 35 (≈ 78.2 µM) | 28 (≈ 62.6 µM) | 24 (≈ 53.6 µM) | 32 (≈ 71.5 µM) | 25 (≈ 55.9 µM) | 35 (≈ 78.2 µM) | 128 to 130 | – |
| O=c1oc2ccccc2c(O)c1C(c1ccccc1O)N(C1CCCCC1)C1CCCCC1 (stereo not shown) [Compound 4j, 3-((Dicyclohexylamino)(2-hydroxyphenyl)methyl)-4-hydroxy-2H-chromen-2-one] | 72 (≈ 161 µM) | 68 (≈ 152 µM) | 72 (≈ 161 µM) | 55 (≈ 123 µM) | 38 (≈ 84.9 µM) | 30 (≈ 67 µM) | 35 (≈ 78.2 µM) | 46 (≈ 103 µM) | 32 (≈ 71.5 µM) | 47 (≈ 105 µM) | 130 to 132 | – |

From paper PMC6152127, “Facile Synthesis of Novel Coumarin Derivatives, Antimicrobial Analysis, Enzyme Assay, Docking Study, ADMET Prediction and Toxicity Study” (Molecules : A Journal of Synthetic Chemistry and Natural …, 2017)
